# Test results published in patent publication US6984656B2, “Core modified porphyrins” (priority 2001, dated 2006).
# Experiments:
# [1] = Tissue distribution by fluorescence in tumor-bearing BALB/c mice
# Method: At various times after sensitizer administration, animals were sacrificed and sensitizer levels determined by direct extraction. In tumor-bearing animals (BALB/c mice or female Fischer rats), the concentration of sensitizer was determined by fluorescence spectroscopy where possible. At various time points post-injection of 5 μmol/kg of sensitizer or 90% of the LD10 (whichever is smaller), tissues were removed, weighed, homogenized, and frozen in liquid nitrogen (3-5 animals per time point). The homogenate, after thawing, was taken up in Solvable and the emission from sensitizer was quantified in terms of ng of sensitizer/mg of protein. With non-fluorescent sensitizers, sensitizer content was quantified spectrophotometrically. Distribution ratios were expressed as the uptake or retention of sensitizer in tumor relative to various normal tissues. Intensified digital fluorescence microscopy and/or confocal microscopy on frozen sections of the tumors, which were prepared from samples specified for this purpose, enabled us to assess intratumor sensitizer distributions.
# Colo-26 tumors = test: PDT against implanted Colo-26 tumors in BALB/c mice; format: in vivo; conditions: 135 J cm^−2; DH-105 2.5, DH-82 0.13, MA-99 0.15 mg/kg, 694 nm 4 h post-injection; Photofrin® 2.5 mg/kg, 630 nm 24 h
# Method: Core-modified porphyrin 6 gave a PDT response in vivo with 694-nm light in BALB/c mice bearing Colo-26 tumors. Animals treated with photosensitizer 6 at 3.25 mg (3.0 μmol)/kg and light required 10.3±0.8 d to reach 400-mm^3 tumor volume, which was more than double the time for control animals (4.3±1.0 d) receiving neither drug nor light (P <0.01).
# The animals were irradiated 4 h post-injection with 135 J cm^−2 of 694-nm red light from a dye laser (75 mW cm^−2 for 30 min). […] For comparison purposes, BALB/C mice bearing Colo-26 tumors were given 2.5 mg (4.0 μmol)/kg of Photofrin® as a 5% aqueous dextrose solution and were irradiated 24 h later with 135 J cm^−2 of 630-nm laser light at a power of 75 mW cm^−2 for PDT with Photofrin®.
# Animals initially were given i.v. (tail vein) injections of sensitizer at various concentrations (0.05to 5.0 μmol/kg). Mice were restrained at various times thereafter without anesthesia in specially designed holders. Fischer 344 female rats were chemically restrained at various times thereafter. In both models, tumors or normal back skin were exposed to light from a xenon arc lamp with appropriate filters or to a dye laser tuned to the absorption maximum determined by in vivo reflectance measurements. Power density of delivered light typically fell in the range of 10-200 mW cm^−2 evenly distributed to a spot size of roughly 1.5 cm and measured by a radiometer. Several dose rates were explored to examine role/limitation of available oxygen on the photodynamic process. Intratumor temperatures were measured with an Omega HYP-O microthermocouple and, when necessary, a stream of nitrogen gas was used to keep intratumor temperatures below 37° C. Animals were examined and measured daily for the first 14 days post treatment and every other day thereafter until the tumors reached 400 mm^3 in mice or until the tumors double in size for Fischer 344 female rats or for 90 days. Tumor size were measured in two dimensions with a caliper. Time to 400 mm^3 or volume doubling times of tumors from control and PDT-treated groups (8-12 animals per group) were compared statistically using the SAS statistical program (SAS, Inc., Cary, N.C.). A P-value of <0.05 is considered significant. The degree of damage to the normal skin within the irradiation field also were noted. Disappearance of tumor with minimal damage to normal skin is the most desirable response. Animals are considered cured if no tumor regrowth occurs by 90 days. In all studies, three control groups were utilized in addition to the treatment group receiving both sensitizer and light: 1) a complete control receiving neither drug nor light, 2) a group receiving sensitizer only, and 3) a group receiving light only. Representative animals from each of the treatment groups were processed for histology immediately, one day, or two weeks after irradiation. Step sections through the tumor were used to define the boundaries of tumor cell damage and death as a function of distance from the skin surface.
# [2] = Rate of photobleaching in phosphate-buffered saline; format: physicochemical; conditions: PBS; 570-750 nm light at 500 mW cm^−2; constant initial absorbance
# Source text: One limitation of PDT dosimetry is the rate of photobleaching of the photosensitizer, which can be problematic with Photofrin® and even more problematic with the bacteriochlorins and the chlorins (such as HPPH).
# [3] = test system: R3230AC rat mammary adenocarcinoma cells; test: Phototoxicity toward R3230AC cells in culture; format: cell-based; conditions: 10 μM, 24 h; 570-800 nm light, 0.9 J cm^−2; 24 h post-irradiation
# Method: Similar results were obtained with R3230AC rat mammary adenocarcinoma cells in vitro. […] Light-treated cells and dark controls were incubated for 24 h and cell survival was determined. The surviving fraction, 24 h post-irradiation, is shown graphically in FIG. 4c.
# cytochrome c oxidase = test: Whole cell mitochondrial cytochrome c oxidase activity in R3230AC cells; format: cell-based, rat
# Method: In parallel experiments, mitochondrial cytochrome c oxidase activity was determined after exposure of R3230AC cells to the same porphyrins either in the dark or 24 h after light exposure (FIG. 8b). […] In contrast, MA-99 inhibited whole cell cytochrome c oxidase activity by 60% after a 24-h incubation period in R3230AC cells. […] Cytochrome c oxidase activity in R3230AC cells irradiated in the presence of MA-99 was inhibited by 95%, […] in enzyme activity compared to that obtained from cells incubated with MA-99, but not exposed to light.
# Determination of the effects of dyes on intracellular mitochondrial cytochrome c oxidase are performed on cultured R3230AC cells. Cultures are seeded at 1×10^5 cells/well on 12-well plates in 1.0 mL MEM (described above). Twenty-four h later, sensitizers are added at concentrations ranging from 10^−4 to 10^−6 M. Cells are incubated in the dark with the sensitizers in MEM for 24 h in a 37° C. incubator. […] Cytochrome c oxidase is measured as above after cell suspensions are thawed and sonicated on ice after 30 s at 10 s bursts using a Branson probe sonifier set at a power of 2. The whole-cell lysate is added to the cytochrome c reaction mixture and results are expressed as the amount of cytochrome c oxidase activity per 10^5 cells.
# [4] = BALB/c mice with Colo-26 tumors, DH-82 5 mg/kg, MA-99 2.5 mg/kg
smiles,measurement,setting,value
O=C([O-])COc1ccc(-c2c3nc(c(-c4ccc(F)cc4)c4ccc(s4)c(-c4ccc(F)cc4)c4nc(c(-c5ccc(OCC(=O)[O-])cc5)c5ccc2s5)C=C4)C=C3)cc1.[Na+].[Na+] [MA-99],concentration in tumor 24 h post-injection,"[1]; 2.5 mg (3.2 μmol)/kg of MA-99, Colo-26 tumors",0.65±0.10 μg/mg of protein
same,increase in photosensitizer uptake in tumor relative to compound 6,[1]; 24 h post-injection,greater than twenty-fold increase
same,concentration in skin at 1 h post-injection,[1]; [4],0.09±0.04 μg/mg of protein
same,concentration in skin at 24 h post-injection,[1]; [4],0.01±0.01 μg/mg of protein
same,concentration in tumor versus other tissues at 24 h post-injection,"[1]; liver, kidney, lung, heart, spleen, muscle, skin",higher in the tumor than in the other tissues examined
same,cures (no tumor regrowth 90 days post-treatment),Colo-26 tumors,five cures
same,mean time to 400 mm^3 of the animals not cured,Colo-26 tumors,23 ± 7 days
same,rate of photobleaching (kbleach),[2],0.16 ± 0.02 × 10^4 s^−1
same,"phototoxicity relative to Photofrin® toward R3230AC cells (surviving fraction, FIG. 4c)",[3],more phototoxic than Photofrin®
same,inhibition of whole cell cytochrome c oxidase activity in the dark,"cytochrome c oxidase; 24-h incubation, dark",60%
same,reduction of cytochrome c oxidase activity after irradiation,"cytochrome c oxidase; 24 h after 0.9 J cm^−2 of 590-750 nm light, vs control untreated cells",95%
